Laboratory results as given in PMC9174720, “Evaluation of antioxidant and cytotoxic properties of phenolic N-acylhydrazones: structure–activity relationship” (Royal Society Open Science, 2022).
Where two headings read alike, the source gives them in different places.

Columns and labels:
[1] = DPPH radical scavenging assay; type: biochemical; settings: for IC50: DPPH 0.05 mM in methanol, incubated 20 and 60 min, absorbance at 517 nm, mean ± s.d. of three measurements, read-out: IC50 for inactivation of DPPH free radical; for stoichiometric factor (SF): SF=[DPPH]/(2×IC50), good antioxidant if SF ≥ 2
Method: The antioxidant screening of all PheNAHs was performed using the 2,2-diphenyl-1-picrylhydrazyl (DPPH) method. The solution of DPPH radical in methanol (0.05 mM, 1 ml) was mixed with the tested compound (20 µl of different concentrations in dimethyl sulfoxide (DMSO) and 980 µl of methanol). The reaction mixture was incubated in the dark at room temperature for 20 and 60 min after which the absorbance of the sample was measured spectrophotometrically at 517 nm. All measurements were performed in triplicate. Methanol was used as a control solution, whereas quercetin and nordihydroguaiaretic acid (NDGA) were used as reference compounds. […] IC50 is defined as the minimal concentration of tested compound required for reaching 50% of a maximum scavenging capacity. The results were presented as mean values ± standard deviation (s.d.) of three independent measurements. The stoichiometric factor (SF) was calculated for all compounds using the equation [45, 46]:1 SF=[DPPH]/(2×IC50)

HCT-116 = experiment: MTT cytotoxicity assay on HCT-116 cells; type: cell-based, human; settings: for IC50: Homo sapiens, HCT-116 cell line, read-out: Growth inhibitory effects IC50; for selectivity index (SI): ratio of IC50 values of MRC-5 and HCT-116, values greater than 1 indicate selectivity toward cancer cell line
Method: (§1) In this in vitro study, we investigated the influence of PheNAHs on two model systems: human colorectal carcinoma HCT-116 and human healthy fibroblast cell line MRC-5. Both cell lines of low passages were purchased from the European collection of authenticated cell cultures (ECACC) and were cultivated in Dulbecco's Modified Eagle Medium (DMEM) (Sigma, D5796) cell culture medium supplemented with 10% foetal bovine serum (Sigma, F4135-500 ML) and 1% penicillin/streptomycin (Sigma, P4333-100 ML) in 75 cm^2 culture flasks. The cells were maintained according to the standardized procedure in the incubator with humidified atmosphere supplemented with 5% CO2 at a physiological temperature of 37°C, and after a few passages and a confluence of about 80%, the cells were used in all in vitro experiments (Laboratory for Bioengineering protocol CB-003).
(§2) The ability of synthesized compounds to inhibit the growth of two different cell lines was estimated by a standardized 3-(4,5-dimethylthiazol-2-yl)-2,5-diphenyltetrazolium bromide (MTT) assay (Laboratory for Bioengineering protocol CB-005). The approximative number of 10 000 cells per well (in 96-well microplates) were seeded and kept in the incubator for 24 h to enable cell adhesion. After the incubation period, the cells were treated with investigated compounds in the concentration range from 0,1 to 500 µM dissolved in DMEM. Cytotoxic effect was evaluated 24 and 72 h from treatment by following the number of survived cells, thus the cell viability. MTT assay is based on spectrophotometric measurement of reduction rate of 3-(4,5-dimethylthiazol-2-yl)-2,5-diphenyltetrazolium bromide (MTT, Acros Organics, 158990010) to purple formazan crystals subsequently dissolved in DMSO (Fisher Chemical, D/4121/PB15) on a microplate reader (Rayto 2100C) at 550 nm. The percentage of the survived (viable) cells was estimated by dividing the absorbance of the treatment with the absorbance of the control (non-treated) cells and multiplied by 100 [47]. As positive controls, Leucovorin and Irinotecan were selected as compounds used in colon cancer treatment.
(§3) Biological activity was the result of two individual experiments, performed in triplicate for each dose. Statistical analyses were determined using the one-way analysis of variance (ANOVA) test for multiple comparisons, SPSS (Chicago, IL) statistical software package (SPSS for Windows, v. 17, 2008). The IC50 values were calculated from the dose curves by a computer program (CalcuSyn). IC50 values represent the half-maximal inhibitory concentration of tested compounds to measure the influence in inhibition of cell growth for 50%. […] At the beginning of the process of selecting the anti-cancer drug candidate, it is necessary to make a rough preselection between the tested substances. In vitro analysis on cancer and healthy cell lines is quantified in different ways, selectivity also. The selectivity index (SI) of tested drugs usually refers to the simple ratio of IC50 values determined for cancer and healthy cells. Also, the SI can be used for the expression of many other examples, such as SI between antibacterial and antiviral effect, discrimination of the drugs effect between many cancer cell lines, etc. In our experimentation, the values greater than ‘1’ indicate selectivity of the tested substance toward cancer cell line.

MRC-5 = experiment: MTT cytotoxicity assay on MRC-5 cells; type: cell-based; settings: Homo sapiens, MRC5, MRC-5 cell line, read-out: Growth inhibitory effects IC50
Method: as §1, §2, §3

| SMILES | IC50 [1] | stoichiometric factor (SF) [1] | IC50 (HCT-116; 24 h exposure) | IC50 (HCT-116; 72 h exposure) | IC50 (MRC-5; 24 h exposure) | IC50 (MRC-5; 72 h exposure) | selectivity index (SI) (HCT-116; after 72 h exposure) | selectivity index (SI) (HCT-116; after 24 h exposure) |
| --- | --- | --- | --- | --- | --- | --- | --- | --- |
| O=C(N/N=C/c1ccc(O)c(O)c1)c1ccc(O)cc1 [3h] | 2.5 ± 0.1 µM | 5 | > 500 µM | 107 µM | > 500 µM | > 500 µM |  |  |
| COc1cccc(/C=N/NC(=O)c2ccccc2)c1O [1d] | > 100 µM |  | > 500 µM | 66.6 µM | > 500 µM | 306 µM | 4.6 |  |
| O=C(N/N=C/c1ccc(O)cc1O)c1ccccc1O [2g] | > 100 µM |  | > 500 µM | 61.2 µM | > 500 µM | > 500 µM |  |  |
| COc1cc(/C=N/NC(=O)c2ccccc2O)cc(OC)c1O [2f] | 6.5 ± 0.4 µM | 1.9 | > 500 µM | > 500 µM | > 500 µM | > 500 µM |  |  |
| O=C(N/N=C/c1ccc(O)cc1)c1ccccc1O [2c] | > 100 µM |  | > 500 µM | > 500 µM | > 500 µM | > 500 µM |  |  |
| COc1cc(/C=N/NC(=O)c2ccccc2)cc(OC)c1O [1f] | 17.2 ± 1.1 µM | 0.7 | > 500 µM | > 500 µM | > 500 µM | > 500 µM |  |  |
| COc1cc(C(=O)N/N=C/c2cccc(OC)c2O)ccc1O [4d] | > 100 µM |  | > 500 µM | 202 µM | > 500 µM | 128 µM |  |  |
| COc1cc(C(=O)N/N=C/c2cc(OC)c(O)c(OC)c2)ccc1O [4f] | 6.3 ± 0.3 µM | 2 | > 500 µM | > 500 µM | > 500 µM | > 500 µM |  |  |
| COc1cccc(/C=N/NC(=O)c2cc(O)c(O)c(O)c2)c1O [5d] | 1 ± 0.1 µM | 12.5 | 89.9 µM | > 500 µM | 180 µM | 458 µM | <0.92 | 2.00 |
| COc1cc(/C=N/NC(=O)c2ccc(O)c(OC)c2)ccc1O [4e] | 22.1 ± 1.1 µM | 0.6 | > 500 µM | > 500 µM | > 500 µM | > 500 µM |  |  |
| O=C(N/N=C/c1ccc(O)cc1)c1ccc(O)cc1 [3c] | > 100 µM |  | > 500 µM | > 500 µM | > 500 µM | > 500 µM |  |  |
| COc1cc(C(=O)N/N=C/c2ccc(O)cc2)ccc1O [4c] | > 100 µM |  | > 500 µM | > 500 µM | > 500 µM | > 500 µM |  |  |
| O=C(N/N=C/c1ccc(O)cc1O)c1ccc(O)cc1 [3g] | > 100 µM |  | > 500 µM | 130 µM | > 500 µM | 440 µM |  |  |
| COc1cc(/C=N/NC(=O)c2ccccc2)ccc1O [1e] | 31.4 ± 0.9 µM | 0.4 | > 500 µM | > 500 µM | > 500 µM | > 500 µM |  |  |
| COc1cc(/C=N/NC(=O)c2ccccc2O)ccc1O [2e] | 20.1 ± 0.9 µM | 0.6 | > 500 µM | > 500 µM | > 500 µM | > 500 µM |  |  |
| O=C(N/N=C/c1ccc(O)cc1)c1cc(O)c(O)c(O)c1 [5c] | 2.9 ± 0.1 µM | 4.3 | 71.8 µM | 38.5 µM | 92 µM | 31.9 µM | 0.83 | 1.28 |
| O=C(N/N=C/c1ccc(O)cc1)c1ccccc1 [1c] | > 100 µM |  | > 500 µM | > 500 µM | > 500 µM | > 500 µM |  |  |
| O=C(N/N=C/c1ccccc1)c1ccc(O)cc1 [3a] | > 100 µM |  | > 500 µM | > 500 µM | > 500 µM | > 500 µM |  |  |
| O=C(N/N=C/c1ccc(O)cc1O)c1ccccc1 [1g] | > 100 µM |  | > 500 µM | 316 µM | > 500 µM | > 500 µM |  |  |
| COc1cc(/C=N/NC(=O)c2cc(O)c(O)c(O)c2)ccc1O [5e] | 1.9 ± 0.1 µM | 6.6 | > 500 µM | 65.2 µM | > 500 µM | 45.8 µM | 0.70 |  |
| COc1cc(C(=O)N/N=C/c2ccccc2O)ccc1O [4b] | > 100 µM |  | 250 µM | 91.4 µM | > 500 µM | 290 µM | 3.17 | >2.00 |
| O=C(N/N=C/c1ccccc1)c1ccccc1O [2a] | > 100 µM |  | > 500 µM | > 500 µM | > 500 µM | > 500 µM |  |  |
| COc1cc(C(=O)N/N=C/c2ccc(O)c(O)c2)ccc1O [4h] | 3.4 ± 0.1 µM | 3.7 | > 500 µM | > 500 µM | > 500 µM | > 500 µM |  |  |
